One may read the pIC50 as the negative decadic logarithm of the IC50, by convention in mol/L.

For one experiment, the target named is T1, CRAF (Homo sapiens, UniProt P04049).
T1 construct: fused on or other part: GST tag (N-terminal according to the vendor's product)
The experiment in a line: CRAF kinase activity assay (ADP-Glo). Type of experiment: biochemical. Particulars: Table 3; 10 μM ATP, kinase-dead MEK1 substrate. In outline: (§1)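 ADP-Glo luminescence read after 2 h reactions at 30° C containing 0.375 nM GST-kinase, kinase-dead MEK1 (75 nM), ATP at 10 μM, pH 7.5 HEPES/MgCl2/DTT, 0.05% DMSO. Compounds dosed from 100 to 0.01 nM (nine points); IC50 from variable-slope fit of % inhibition.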
In general terms: ADP-Glo turns the ADP formed in a reaction into a luminescent signal.

The next experiment addresses T2, BRAF (Homo sapiens, UniProt P15056).
T2 construct: GST; purchased Millipore Sigma B4062-10UG
Description: BRAF kinase activity assay (ADP-Glo). Type of experiment: biochemical. Particulars: Table 3; 10 μM ATP, kinase-dead MEK1 substrate. In outline: as §1

Another experiment concerns pERK, HCT116 cells. The experiment in a line: Phospho-ERK inhibition, AlphaLISA p-ERK 1/2, HCT-116. Format: cell-based, human. The settings on record: Table 3; for pIC50: HCT116 cells (KRAS G13D), 1 h treatment; for HCT116 pERK (Ymin %): lowest % inhibition value of the pERK IC50 curve, above −20% = no paradoxical induction. In outline: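 Cells in RPMI-1640 with 5% FBS plated overnight, then treated 1 h with ten-point dilutions (10 μM to 0.33 nM, 0.5% DMSO). Lysate p-ERK1/2 (Thr202/Tyr204) read by AlphaLISA SureFire Ultra; % inhibition normalised to DMSO and 1 μM trametinib background, IC50 by four-parameter fit.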
For orientation: In Alpha technology, singlet oxygen from a donor bead excites a nearby acceptor bead.

pIC50: −log10 of the molar value. Where only a bound is given, the exact number is not on record here.

T2 sequence (P15056 whole entry): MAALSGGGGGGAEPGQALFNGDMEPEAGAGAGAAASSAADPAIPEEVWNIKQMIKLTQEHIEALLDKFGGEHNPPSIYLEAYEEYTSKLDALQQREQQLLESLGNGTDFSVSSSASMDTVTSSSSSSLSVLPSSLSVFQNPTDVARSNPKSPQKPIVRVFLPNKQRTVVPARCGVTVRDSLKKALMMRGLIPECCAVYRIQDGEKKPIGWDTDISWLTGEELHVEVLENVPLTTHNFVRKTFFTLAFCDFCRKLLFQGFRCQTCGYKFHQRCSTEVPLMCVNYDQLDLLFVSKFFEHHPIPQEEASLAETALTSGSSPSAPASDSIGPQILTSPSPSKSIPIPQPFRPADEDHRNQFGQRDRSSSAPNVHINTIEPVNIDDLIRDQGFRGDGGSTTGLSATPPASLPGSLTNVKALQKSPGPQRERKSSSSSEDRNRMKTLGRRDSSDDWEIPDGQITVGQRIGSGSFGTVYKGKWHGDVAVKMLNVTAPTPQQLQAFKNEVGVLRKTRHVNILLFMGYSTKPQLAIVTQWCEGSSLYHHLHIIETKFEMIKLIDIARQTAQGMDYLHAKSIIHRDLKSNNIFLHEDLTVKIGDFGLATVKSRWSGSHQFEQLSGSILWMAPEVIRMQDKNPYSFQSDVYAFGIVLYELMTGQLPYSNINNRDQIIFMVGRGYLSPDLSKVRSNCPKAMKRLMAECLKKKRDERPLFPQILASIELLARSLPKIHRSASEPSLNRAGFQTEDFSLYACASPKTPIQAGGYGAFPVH
T1 sequence (P04049 whole entry Y340E/Y341E, form open, the tested form may be a part): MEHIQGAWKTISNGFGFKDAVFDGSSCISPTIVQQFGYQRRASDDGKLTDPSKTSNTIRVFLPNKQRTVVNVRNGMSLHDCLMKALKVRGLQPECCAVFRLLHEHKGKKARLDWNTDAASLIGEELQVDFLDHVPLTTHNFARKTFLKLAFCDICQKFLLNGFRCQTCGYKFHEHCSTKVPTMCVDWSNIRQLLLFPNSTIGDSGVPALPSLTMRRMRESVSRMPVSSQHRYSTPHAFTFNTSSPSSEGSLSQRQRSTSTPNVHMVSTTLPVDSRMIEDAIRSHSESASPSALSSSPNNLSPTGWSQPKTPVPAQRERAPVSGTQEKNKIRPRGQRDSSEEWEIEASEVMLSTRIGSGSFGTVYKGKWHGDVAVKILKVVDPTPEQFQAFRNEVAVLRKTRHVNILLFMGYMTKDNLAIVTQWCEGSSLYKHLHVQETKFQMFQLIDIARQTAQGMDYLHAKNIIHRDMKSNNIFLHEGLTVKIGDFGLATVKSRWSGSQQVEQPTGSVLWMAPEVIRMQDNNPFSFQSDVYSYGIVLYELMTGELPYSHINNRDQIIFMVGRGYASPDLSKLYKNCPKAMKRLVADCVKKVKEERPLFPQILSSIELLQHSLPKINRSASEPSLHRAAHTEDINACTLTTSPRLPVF

`Cc1c(F)cccc1S(=O)(=O)Nc1ccc(F)c(Nc2ncnc3sc(-n4nc(C(=O)N(C)Cc5cccnc5)c5ccccc54)nc23)c1F` [Example 23]: the pIC50 on CRAF was < 7.30; at BRAF it was < 8.00; in the experiment on pERK, HCT116 cells (Homo sapiens, HCT-116) it was 5.00 to 6.00.
For the compound `O=S(=O)(Nc1ccc(F)c(Nc2ncnc3sc(-n4cnc5c(N6CCNCC6)cccc54)nc23)c1F)c1cccc(Cl)c1Cl` [Example 156, 2,3-dichloro-N-[2,4-difluoro-3-[[2-(4-piperazin-1-ylbenzimidazol-1-yl)thiazolo[5,4-d]pyrimidin-7-yl]amino]phenyl]benzenesulfonamide], the pIC50 on CRAF was > 8.00; at BRAF, > 9.00; with pERK, HCT116 cells (Homo sapiens, HCT-116), > 6.30.
`CC(C)(O)C1CN(C(=O)c2cn(-c3nc4c(Nc5c(F)ccc(NS(=O)(=O)c6cccc(Cl)c6Cl)c5F)ncnc4s3)c3ccccc23)C1` [Example 87]: the pIC50 on CRAF is > 8.00; on BRAF, 8.00 to 9.00; with pERK, HCT116 cells it was 6.00 to 6.30. Further, the “HCT116 pERK (Ymin %)” value in the experiment with pERK, HCT116 cells is −8%.
Regarding `N#CC1CCN(c2cccc3c2ncn3-c2nc3c(Nc4c(F)ccc(NS(=O)(=O)c5cccc(Cl)c5Cl)c4F)ncnc3s2)CC1` [Example 140], the pIC50 was 7.30 to 8.00 at CRAF; 8.00 to 9.00 on BRAF; > 6.30 in the experiment on pERK, HCT116 cells. Also, the “HCT116 pERK (Ymin %)” value in the experiment on pERK, HCT116 cells is −10%.
On to `Nc1ccncc1-c1cccc2c1ncn2-c1nc2c(Nc3c(F)ccc(NS(=O)(=O)c4cccc(Cl)c4Cl)c3F)ncnc2s1` [Example 133], for which the pIC50 at CRAF was 7.30 to 8.00; at BRAF, 8.00 to 9.00; in the experiment on pERK, HCT116 cells, 5.00 to 6.00. In addition, the “HCT116 pERK (Ymin %)” value in the experiment with pERK, HCT116 cells is recorded as −12%.
Regarding `O=S(=O)(Nc1ccc(F)c(Nc2ncnc3sc(-n4cnc5cc(Cl)c(Cl)cc54)nc23)c1F)c1cccc(Cl)c1Cl` [Example 47], the pIC50 on CRAF was 7.30 to 8.00; on BRAF, 8.00 to 9.00; in the experiment on pERK, HCT116 cells (Homo sapiens, HCT-116), 5.00 to 6.00.
For the compound `Cc1c(F)cccc1S(=O)(=O)Nc1ccc(F)c(Nc2ncnc3sc(-n4cnc5c(N)cccc54)nc23)c1F` [Example 2], the pIC50 on CRAF is 7.30 to 8.00; on BRAF, 8.00 to 9.00; in the experiment on pERK, HCT116 cells, > 6.30. For the same compound, the “HCT116 pERK (Ymin %)” value in the experiment with pERK, HCT116 cells is given as −1%.
In the case of `Cc1c(F)cccc1S(=O)(=O)Nc1ccc(F)c(Nc2ncnc3sc(-n4cc(C(=O)NCc5cccnc5)c5ccccc54)nc23)c1F` [Example 29], the negative-log IC50 (pIC50) at CRAF is < 7.30; on BRAF it was < 8.00; in the experiment with pERK, HCT116 cells it was 6.00 to 6.30. Further, in the experiment on pERK, HCT116 cells, the “HCT116 pERK (Ymin %)” value is given as 5%.
As for `O=S(=O)(Nc1ccc(F)c(Nc2ncnc3sc(-n4cnc5c(N6CCC(O)(C(F)(F)F)CC6)cccc54)nc23)c1F)c1cccc(Cl)c1Cl` [Example 137], the pIC50 at CRAF was < 7.30; on BRAF, < 8.00; with pERK, HCT116 cells it was > 6.30. Moreover, the “HCT116 pERK (Ymin %)” value in the experiment on pERK, HCT116 cells was −14%.
For the compound `COc1ccc(S(=O)(=O)Nc2ccc(F)c(Nc3ncnc4sc(-n5cnc6c(C(C)(C)C#N)cccc65)nc34)c2F)c(C)c1F` [Example 118], the pIC50 at CRAF is < 7.30; on BRAF, < 8.00; in the experiment on pERK, HCT116 cells it was > 6.30. In addition, in the experiment on pERK, HCT116 cells, the “HCT116 pERK (Ymin %)” value was −14%.
As to `O=C(c1cn(-c2nc3c(Nc4c(F)ccc(NS(=O)(=O)c5cccc(Cl)c5Cl)c4F)ncnc3s2)c2cccc(F)c12)N1C2CCC1COC2` [Example 93], the pIC50 was > 8.00 on CRAF; > 9.00 at BRAF; 6.00 to 6.30 in the experiment on pERK, HCT116 cells. Moreover, the “HCT116 pERK (Ymin %)” value in the experiment on pERK, HCT116 cells stood at 3%.
Take `CN1CC2CCC(C1)N2S(=O)(=O)c1cn(-c2nc3c(Nc4c(F)ccc(NS(=O)(=O)c5cccc(Cl)c5Cl)c4F)ncnc3s2)c2ccccc12` [Example 68]: the pIC50 on CRAF was 7.30 to 8.00; on BRAF, 8.00 to 9.00; in the experiment on pERK, HCT116 cells, > 6.30. Also, in the experiment on pERK, HCT116 cells, the “HCT116 pERK (Ymin %)” value is reported as −6%.
Consider `Cc1c(F)cccc1S(=O)(=O)Nc1ccc(F)c(Nc2ncnc3sc(-n4nc(C(=O)N5CCC(CO)C5)c5ccccc54)nc23)c1F` (stereo not drawn) [Example 32], for which the pIC50 is 7.30 to 8.00 on CRAF; 8.00 to 9.00 at BRAF; 5.00 to 6.00 in the experiment with pERK, HCT116 cells. In the experiment on pERK, HCT116 cells, the “HCT116 pERK (Ymin %)” value is given as −13%.
As for `O=C(c1cccs1)c1cn(-c2nc3c(Nc4c(F)ccc(NS(=O)(=O)c5cccc(Cl)c5Cl)c4F)ncnc3s2)c2ccccc12` [Example 107], the pIC50 was < 7.30 at CRAF; < 8.00 at BRAF; 5.00 to 6.00 in the experiment on pERK, HCT116 cells (Homo sapiens, HCT-116).
`O=S(=O)(Nc1ccc(F)c(Nc2ncnc3sc(-n4cnc5c(OCCO)cccc54)nc23)c1F)c1cccc(Cl)c1Cl` [Example 111]: the pIC50 on CRAF is > 8.00; at BRAF it was > 9.00; in the experiment on pERK, HCT116 cells, > 6.30. Also, the “HCT116 pERK (Ymin %)” value in the experiment with pERK, HCT116 cells was −10%.
The like results for `O=S(=O)(Nc1ccc(F)c(Nc2ncnc3sc(-n4cc(S(=O)(=O)C5CCCC5)c5ccccc54)nc23)c1F)c1cccc(Cl)c1Cl` [Example 64] were, in that order, < 7.30, 8.00 to 9.00, > 6.30 and −4%.
In the case of `O=S(=O)(Nc1ccc(F)c(Nc2ncnc3sc(-n4cnc5c(F)c(OCCO)ccc54)nc23)c1F)c1cccc(Cl)c1Cl` [Example 80], the pIC50 at CRAF is > 8.00; on BRAF it was 8.00 to 9.00; in the experiment with pERK, HCT116 cells (Homo sapiens, HCT-116), 5.00 to 6.00.
Consider `Cc1c(F)cccc1S(=O)(=O)Nc1ccc(F)c(Nc2ncnc3sc(-n4cc(C(=O)N(C)CCc5ccccn5)c5ccccc54)nc23)c1F` [Example 28], for which the pIC50 on CRAF is 7.30 to 8.00; at BRAF, 8.00 to 9.00; in the experiment on pERK, HCT116 cells (Homo sapiens, HCT-116), > 6.30.
Consider `Cc1c(F)cccc1S(=O)(=O)Nc1ccc(F)c(Nc2ncnc3sc(-n4cc(C(=O)N5C6CCC5COC6)c5ccccc54)nc23)c1F` [Example 40], for which the pIC50 on CRAF was > 8.00; on BRAF, > 9.00; with pERK, HCT116 cells it was > 6.30. For the same compound, in the experiment on pERK, HCT116 cells, the “HCT116 pERK (Ymin %)” value is −7%.
The like results for `Cc1c(Cl)cccc1S(=O)(=O)Nc1ccc(F)c(Nc2ncnc3sc(-n4cnc5c(C(C)(C)C#N)cccc54)nc23)c1F` [Example 116] were, in that order, 7.30 to 8.00, 8.00 to 9.00, > 6.30 and −3%.
Regarding `CN(CCc1ccccn1)C(=O)c1cn(-c2nc3c(Nc4c(F)ccc(NS(=O)(=O)c5cccc(Cl)c5Cl)c4F)ncnc3s2)c2ccccc12` [Example 50], the pIC50 on CRAF was > 8.00; on BRAF, > 9.00; in the experiment with pERK, HCT116 cells, > 6.30. Besides, the “HCT116 pERK (Ymin %)” value in the experiment on pERK, HCT116 cells is listed as 1%.

The values are drawn from patent US20260137697A1, “THIAZOLO[5,4-D]PYRIMIDINE COMPOUNDS, COMPOSITIONS COMPRISING THEM AND USES THEREOF” (University de Montreal, priority 2022, published 2026).
